# Where a name gives a salt, the structure may show the parent alone. Read-outs that look alike come from different tables or passages of the source.
# Tests used:
# [1] = test system: patient with excessive eating and vomiting (bulimia) and depressive state; conditions: patient history: drug therapy and spiritual therapy at three neurological hospitals before the first examination; cited from earlier work
# [2] = test system: patients suffering from light to medium Alzheimer's disease; conditions: 24-week, double-blind, placebo-controlled trial; cited from earlier work
# [3] = test system: patient with excessive eating and vomiting (bulimia), insensitive to 60 mg of fluoxetine
# From the text: An excessive eating started when they were the third year class ([…]) of high school and it is still continuing. At the first medical examination, they were unable to go to university.
# bulimia = conditions: cited from earlier work
compound,measurement,setting,value
Fc1ccc([C@@H]2CCNC[C@H]2COc2ccc3c(c2)OCO3)cc1 [Paxil],improvement under earlier drug therapy,[1],no improvement was noted
Cc1nc2n(c(=O)c1CCN1CCC(c3noc4cc(F)ccc34)CC1)CCCC2 [Risperdal],improvement under earlier drug therapy,[1],no improvement was noted
O=C1CN=C(c2ccccc2Cl)c2cc([N+](=O)[O-])ccc2N1 [Rivotril],improvement under earlier drug therapy,[1],no improvement was noted
CN1C(=O)CN=C(c2ccccc2)c2cc(Cl)ccc21 [diazepam],improvement under earlier drug therapy,[1],no improvement was noted
"COc1cc2c(cc1OC)C(=O)C(CC1CCN(Cc3ccccc3)CC1)C2 (stereo not shown) [donepezil hydrochloride, 1-benzyl-4-[(5,6-dimethoxy-1-indanon)-2-yl]methylpiperidine]",cognitive ability and general function,[2],improves the cognitive ability and general function
CNCCC(Oc1ccc(C(F)(F)F)cc1)c1ccccc1 (stereo not shown) [fluoxetine],improvement in excessive eating,[3]; 20 mg of fluoxetine for two weeks,no improvement in excessive eating was noted
same,improvement in excessive eating,[3]; fluoxetine increased to 40 mg,no improvement was noted yet
same,amount and frequency of excessive eating,"[3]; fluoxetine increased up to 60 mg, for two weeks",no decrease in amount and frequency of excessive eating were noted
same,depression,"[3]; fluoxetine up to 60 mg, six weeks from the initiation of the therapy",No change in depression was noted
same,rate of improvement,"bulimia; bulimia, 60 mg per day",about 60%
COCCCC/C(=N\OCCN)c1ccc(C(F)(F)F)cc1 [fluvoxamine],improvement under earlier drug therapy,[1],no improvement was noted
OC1(c2ccc(Cl)cc2)c2ccccc2C2=NCCN21 (stereo not shown) [mazindol],side effects,bulimia; applied for bulimia,"excitation, frustration, load on cardiovascular system, dysuria and others"
CCCC(CCC)C(=O)[O-].[Na+] [sodium valproate],improvement under earlier drug therapy,[1],no improvement was noted

# Source: US20090203738A1, “Pharmaceutical Composition for Treating Bulimia and Depression Arising from Bulimia” (priority 2005, published 2009)
